From PMC9114170, “Investigation of the Role of Hydrophobic Amino Acids on the Structure-Activity Relationship in the Antimicrobial Venom Peptide Ponericin L1” (The Journal of membrane biology, 2021)
Ends that are not written are not given here.

How the values were obtained:
[1] = system: Gram-positive and Gram-negative strains; assay: Antimicrobial activity over the MIC panel; type: cell-based; conditions: highest concentration tested 15μM
Description: Six different strains of bacteria were streaked on LB-Miller agar plates from a frozen glycerol stock derived from the original samples shipped from CGSC (Coli Genetic Stock Center, Yale University) or ATCC (American Type Culture Collection) (Escherichia coli D31 CGSC 5165 ([Burman, Nordstrom & Boman, 1968]), Staphylococcus aureus ATCC 35556. Pseudomonas aeruginosa PA-01 ATCC 47085, Acinetobacter baumannii ATCC 19606). For each of the strains a liquid overnight culture was prepared using a single colony into fresh LB broth and placed in a shaking incubator for ~ 18 hours at 37 C at 225 rpm. After the incubation period, a 1:200 dilution was made in fresh LB broth and then used for experimentation. Minimal Inhibitory Concentration (MIC) determinations were performed using mid-log phase bacteria diluted to 5 x 10^5 CFU/mL. Next, 90 μL of this diluted culture was then pipetted into a sterile 96-well plate that contains serially diluted aliquots of the peptide variants to consist of a total volume of 100 μL. This plate was then incubated for 18 hours at 37 C. Bacterial growth was determined by taking an OD600 measurement using a Spectramax M5 multimode plate reader post incubation. Minimal Bactericidal Concentration (MBC) was performed by taking 1 μL of the culture from the MIC plate and then pipetting it on to a fresh LB agar plate. After plating this culture, the plate was then incubated overnight at 37 C. MBC was determined by the growth or the lack of growth from each well on the agar plate.
The ability of L1 and the hydrophobic variants to act as antimicrobials was investigated using the Minimal Inhibitory Concentration (MIC) and Minimal Bactericidal Concentration (MBC) assays as previously described ([Wiegand, Hilpert & Hancock, 2008]). The MIC is determined as the lowest concentration of peptide required to inhibit bacterial growth in solution, while the MBC is the lowest concentration required to act in a bactericidal mechanism (as opposed to bacteriostatic) and is determined by plating MIC cultures on antimicrobial-free media. Peptides were screened against E. coli, S. aureus, A. baumannii, P. aeruginosa, B. subtilis, and K. pneumoniae.

[2] = Acrylamide quenching of Trp fluorescence in absence and presence of lipid vesicles; type: physicochemical; conditions: 2 μM peptide in PBS pH 7.0, λex 295 nm, λem 340, average of three replicates ± SD; for Acrylamide quenching Ksv, PCPG: 3:1 DOPC:DOPG vesicles; for Acrylamide quenching Ksv, PCPG / Acrylamide quenching Ksv, PEPG / Acrylamide quenching Ksv, PC / Acrylamide quenching Ksv, PC/Chol: 250 μM lipid; for Acrylamide quenching Ksv, PEPG: 3:1 POPE:DOPG vesicles; for Acrylamide quenching Ksv, PC: DOPC vesicles; for Acrylamide quenching Ksv, PC/Chol: DOPC:Cholesterol vesicles; for Acrylamide quenching Ksv, PBS: no lipid vesicles
Description: To form small unilamellar vesicles (SUVs) sonication or ethanol dilution methods were implemented ([Caputo & London, 2019]). In all cases, lipid vesicle preparation was the same. Depending on the lipid composition, appropriate volumes of lipids in chloroform were mixed in a glass tube and then allowed to dry under N2 gas for 15 minutes. The lipid films were then placed in a vacuum desiccator and allowed to dry further under a vacuum for 1 hour. For vesicles formed through ethanol dilution methods, 10 μL of pure ethanol was added to the film, and then vortex until the dissipation of the film. While continuing to vortex, the appropriate amount of PBS was added. For vesicles formed using the method of sonication, PBS was added directly to the tube while being vortexed to create multilamellar vesicles (MLVs). The MLV suspension was covered with parafilm and then placed in a high-powered bath sonicator (Avanti Lipids) and subjected to sonication for 20 minutes to create SUVs.
Acrylamide quenching was monitored by titration of samples with 10 μL aliquots of 4M acrylamide titrated into peptide samples prepared as described above. These samples contained either or [0.25] mM total lipid. After each addition of acrylamide, Trp fluorescence intensity was measured using λex = 295 nm and λem = 340. Corrections to the emission intensity were made for background subtraction, dilutions, and inner filter effects in the excitation path as described previously. The same method to calculate Ksv was used as above.
In order to gain more insight into the bilayer interactions, fluorescence quenching approaches were utilized. The peptides were exposed to the aqueous quencher acrylamide in solution or when bound to vesicles. […] Thus, peptide Trp exposure to the aqueous milieu can be gauged by the extent of quenching by acrylamide. Stern-Volmer quenching plots were created to analyze the data and Ksv (slopes of a linear fit to the data) are shown in Figure 4 and Table 2. […] In the case of L1L and L1I, there was a significant reduction in quenching between the solution (free) state of the peptide and when bound to anionic vesicles, but a much smaller reduction if any when interacting with zwitterionic vesicles. This is consistent with a more deeply buried Trp in anionic bilayers.

[3] = system: E. coli D31 outer membrane; assay: E. coli outer membrane permeabilization (nitrocefin / β-lactamase); type: cell-based, Escherichia coli; conditions: E. coli D31, nitrocefin hydrolysis, absorbance 486 nm, up to 90 minutes; peptide serially diluted from 15 μM; average of three replicates
Description: A single colony of E.coli D31 was taken from an LB agar plate and inoculated into fresh LB broth with 100 μg/mL ampicillin (LB-Amp), then place in a shaking incubator at 37 C (225 rpm) for ~ 18 hours. After the incubation period 100 μL was taken from the culture and diluted with 25 mL of fresh LB-Amp. The dilution was further incubated in the same conditions until an OD600 of 0.2 to 0.4 was obtained. Once the specified OD600 was reached the culture was then centrifuged at 2500 rpm for 15 minutes in a tabletop clinical centrifuge. The supernatant was discarded and then an equal amount of PBS (100 mM NaH2PO4, 200 mM NaCl, pH7) was used to resuspend the pellet.
Experimental samples were prepared in a 96-well plate in the order as follows: 10 μL of the six peptide variants that were serially diluted starting a concentration of 15 μM with the exception of the last row (used as a negative control 10 μL of 0.01% acetic acid). 80 μL of the resuspended bacteria culture, and 10 μL of 50 μg/mL nitrocefin in PBS. The absorbance was recorded at 486 nm in 5-minute intervals for a total run time of 90 minutes immediately following the addition of nitrocefin. The antimicrobial agent polymyxin B was used as a positive control. The values presented are the average of three replicates.
As the mechanism of action of the L1 venom peptide is likely a membrane disruptive mechanism, the effect of the hydrophobic substitutions on membrane permeabilization was investigated using E.coli and ovine red blood cells (RBCs). The permeabilization of the E. coli outer membrane was assayed using an enzyme-substrate pair in which the enzyme (β-lactamase) is located in the periplasmic space while the substrate (the chromogenic nitrocefin) is added to the exterior of cells. […] Similarly, the permeabilization of the E. coli inner membrane was assessed using a cytoplasmic enzyme, β-galactosidase, and a chromogenic substrate, ONPG. […]

Sequence	Antimicrobial activity (summary of MIC results) [1]	Acrylamide quenching Ksv, PCPG [2] [M⁻¹]	Acrylamide quenching Ksv, PEPG [2] [M⁻¹]	Acrylamide quenching Ksv, PC [2] [M⁻¹]	Acrylamide quenching Ksv, PC/Chol [2] [M⁻¹]	Acrylamide quenching Ksv, PBS [2] [M⁻¹]	Outer membrane permeabilization [3]
FFKEFWTKMKGAGKAFFGKFKGFF [L1F]	broad spectrum activity	2.06 ± 0.97	1.80 ± 0.77	1.57 ± 3.49	1.63 ± 0.20	4.18 ± 4.79	increased permeability of the outer membrane
LLKELWTKMKGAGKALLGKLKGLL [L1L]	broad spectrum activity	3.51 ± 0.17	2.22 ± 4.04	4.08 ± 2.10	8.92 ± 0.94	4.26 ± 0.97	increased permeability of the outer membrane
